# Laboratory results taken from patent publication US12286437B2, “Cardiac sarcomere inhibitors” (Cytokinetics, Inc., priority 2021, dated 2025).
# Columns and labels:
# CYP2D6 = molecular target: T1, CYP2D6 (Homo sapiens, UniProt P10635); test: Time-dependent inhibition of CYP2D6 in human liver microsomes; type: in vitro ADME; settings: for (% Activity NADPH T0)/(% Activity NADPH T30): fold change
# T1 construct: Pooled human microsomes and selective CYP probe substrates were used; from tissue; host or cells: pooled human liver microsomes
# T1 sequence (P10635 whole entry): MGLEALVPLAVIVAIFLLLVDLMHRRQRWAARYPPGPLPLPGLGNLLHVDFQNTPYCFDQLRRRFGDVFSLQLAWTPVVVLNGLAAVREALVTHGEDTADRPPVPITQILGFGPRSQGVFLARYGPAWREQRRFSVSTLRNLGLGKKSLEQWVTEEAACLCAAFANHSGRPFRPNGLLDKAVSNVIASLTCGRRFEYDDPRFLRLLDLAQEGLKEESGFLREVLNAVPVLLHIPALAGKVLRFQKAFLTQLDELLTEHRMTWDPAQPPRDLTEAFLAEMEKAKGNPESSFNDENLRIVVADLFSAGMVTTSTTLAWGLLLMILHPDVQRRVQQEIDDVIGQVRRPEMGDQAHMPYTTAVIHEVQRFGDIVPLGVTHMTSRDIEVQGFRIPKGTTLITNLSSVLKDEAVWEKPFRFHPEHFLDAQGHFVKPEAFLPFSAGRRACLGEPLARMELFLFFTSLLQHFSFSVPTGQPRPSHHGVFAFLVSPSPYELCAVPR
# Description: (§1) An assessment of the time-dependent Inhibitory Potential of the test compounds against Principal Human Cytochrome P450 Isozymes using Human Liver Microsomes was also carried out using standard methods (Grimm et al, Drug Metab. Dispos., July; 37(7):1355-70. doi: 10.1124/dmd.109.026716, 2009). Pooled human microsomes and selective CYP probe substrates were used for in vitro assessment of test compounds at 25 and 50 μM as time-dependent inhibitors of […] human hepatic cytochrome P450 isozymes (CYP1A2, 2B6, 2C9, 2C19, 2D6, and 3A4). LC-MS/MS was used to quantify metabolite formation. The inhibition of each P450 enzyme in human liver microsomes was measured as the percentage decrease in the activity of marker metabolite formation as measured by LC-MS/MS compared to non-inhibited controls (=100% activity) at time zero and after 30 minutes incubation. The occurrence of any time dependent inhibition was then expressed as the fold change in enzyme activity at time zero relative to the activity after 30 minutes incubation.
# [1] = tested on: Rat Cardiac Contractility; test: Echocardiography assessment of acute pharmacodynamic effect in rat cardiac contractility (fractional shortening); type: in vivo, Sprague Dawley rats; settings: oral gavage, plasma concentration vs fractional shortening, 1 and 4 h post-dose
# Description: Assessment of in vivo cardiac function by echocardiography was performed in male Sprague Dawley rats under isoflurane (1-3%) anesthesia. 2-D M-mode images of the left ventricle were acquired in the parasternal long-axis view before, during, and after administration of compounds. In vivo fractional shortening was determined by M-mode image analysis with the following calculation: ((End diastolic diameter−end systolic diameter)[…] end diastolic diameter×100). Three pre-dose baseline M-Mode images were taken at 1-minute intervals prior to compound administration. Compounds were formulated in a 0.5% hydroxypropyl methylcellulose 2910 (HPMC 2910): 0.1% Tween 80 suspension and delivered as a single dose (5 mL/kg) by oral gavage. At one and four hours post-dose, rats were lightly anesthetized for M-mode echocardiography measurement. Concurrent with echocardiography measurements, blood samples were taken to determine the corresponding compound plasma concentrations. The resulting plasma concentrations were used to estimate the IC50 and IC10 values, which is the concentration at which fractional shortening is 50% and 10% of the pre-dose baseline contractility, respectively.
# [2] = Mouse single dose pharmacokinetics; type: in vivo, C57BL/6 mice; settings: male, C57BL/6, plasma, 0.5 mg/kg, IV
# Description: Male C57BL/6 mice (18-25 g, 6-8 weeks old) were obtained from Zhejiang Vital River Laboratory Animal Technology Co., Ltd. All animals for IV administration had free access to food and water. The IV dosing was performed through tail vein. The IV dose solution for the Test Articles was prepared in 10% DMA/20% PG/70% HPβCD solution (40% w/v aqueous HPβCD) at a concentration of 0.1 mg/mL. The oral dosing suspension was prepared by suspending Test Article in 0.5% HPMC/0.1% Tween 80 in water at a concentration 0.2 mg/mL. Concentrations of IV and PO doses were measured at the end of the study. Pharmacokinetic (PK) parameters were calculated using the nominal dose values if the measured values were within 20% of the nominal values. A group of 15 mice received the IV dose where the volume was 5 mL/kg. Another group of 15 mice received by oral gavage of Test Article at 1 mg/kg. The oral dose volume was 5 mL/kg. Sparse blood samples were collected from groups of three mice via retro-orbital bleeding, placed into a K2EDTA microtainer tube and maintained on ice until centrifugation to obtain plasma. Each designated group of mice were bled at two-time points. The time points were predose (PO only), 5 (IV only), 15, 30 minutes, 1, 2, 4, 6, 8 and 24 hours postdose. Blood samples were centrifuged and the collected plasma was stored at −80° C. until analysis. Plasma samples were analyzed for Test Article concentrations using an LC/MS/MS method. Briefly, a 50 μL aliquot of each plasma sample was mixed with 100 μL of acetonitrile that contained an internal standard (IS). The mixture was vortexed and centrifuged. Ten (10) μL of the resulting solution was injected onto a reverse-phase C18 column and the resultant peaks detected on a LC/MS/MS equipped with a turbo ionspray ionization source. Sample concentrations below the limit of quantification (BLQ) were treated as zero for PK calculations. Composite PK parameters were estimated from a maximum of two sampling points per mouse and three mice per sampling point and the sparse data option of WinNonlin was used for noncompartmental analysis of the concentration-time data (Phoenix WinNonLin software, version 64; Pharsight, Mountain View, CA). The elimination rate constant (k) was calculated as the absolute value of the slope of the linear regression of logarithm of the concentration versus time for the last three data points of the concentration-time profiles. Apparent elimination half-life (t1/2) values were calculated as ln(2)/k. Area under the concentration-time curve (AUC) values were estimated using linear trapezoidal method. AUCt values were calculated from the dosing time to the last measurable concentration. AUC∞ values were calculated as the sum of the corresponding AUCt and the ratio of the last detectable concentration divided by k. Plasma clearance (CL) was calculated from Dose/AUC∞. Mean resident time (MRT) was estimated by moment analysis. Volume of distribution at steady state (Vss) was calculated from MRT∞×CL. Maximum concentration (Cmax) and time to reach Cmax (tmax) were recorded as observed. Bioavailability was calculated dAUC∞,po/dAUC∞,iv×100% where dAUC was the dose normalized AUC value. Data for compounds tested are provided in Table B. Compounds tested were prepared in accordance with the synthetic procedures described herein.
# CYP2C9 = molecular target: T2, CYP2C9 (Homo sapiens, UniProt P11712); test: Time-dependent inhibition of CYP2C9 in human liver microsomes; type: in vitro ADME; settings: for (% Activity NADPH T0)/(% Activity NADPH T30): fold change
# T2 construct: Pooled human microsomes and selective CYP probe substrates were used; from tissue; host or cells: pooled human liver microsomes
# T2 sequence (P11712 whole entry): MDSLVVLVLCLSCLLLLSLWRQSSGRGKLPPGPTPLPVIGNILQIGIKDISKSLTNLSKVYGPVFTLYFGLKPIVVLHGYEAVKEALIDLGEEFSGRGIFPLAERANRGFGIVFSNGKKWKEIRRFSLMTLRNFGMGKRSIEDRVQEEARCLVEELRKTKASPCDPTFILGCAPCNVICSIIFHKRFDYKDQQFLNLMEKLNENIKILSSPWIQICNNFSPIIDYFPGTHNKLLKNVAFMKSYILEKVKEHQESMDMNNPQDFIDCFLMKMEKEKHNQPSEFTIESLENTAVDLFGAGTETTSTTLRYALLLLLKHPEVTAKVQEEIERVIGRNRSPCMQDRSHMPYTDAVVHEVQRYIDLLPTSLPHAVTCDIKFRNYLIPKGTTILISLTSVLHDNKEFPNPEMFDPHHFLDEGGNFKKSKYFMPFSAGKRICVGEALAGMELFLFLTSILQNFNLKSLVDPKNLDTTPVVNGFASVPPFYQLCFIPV
# Description: as §1
smiles,measurement,setting,value
"C[C@H]1CC[C@H](N2CC(=O)N(Cc3ccc(Cl)cc3)C3(CN(C(N)=O)C3)C2=O)CC1 [Compound 18, 5-(4-chlorobenzyl)-8-((1r,4r)-4-methylcyclohexyl)-6,9-dioxo-2,5,8-triazaspiro[3.5]nonane-2-carboxamide]",(% Activity NADPH T0)/(% Activity NADPH T30),"CYP2D6; CYP2D6, 25 μM",1.0
same,(% Activity NADPH T0)/(% Activity NADPH T30),"CYP2D6; CYP2D6, 50 μM",1.1
same,"activity at 30 min, 25 µM","CYP2D6; pooled human liver microsomes, CYP2D6, 25 μM, human liver microsomes, after 30 minutes incubation, read-out: % Activity NADPH T30",105%
same,"activity at 0 min, 25 µM","CYP2D6; pooled human liver microsomes, CYP2D6, 25 μM, human liver microsomes, time zero, read-out: % Activity NADPH T0",103%
same,"activity at 30 min, 50 µM","CYP2D6; pooled human liver microsomes, CYP2D6, 50 μM, human liver microsomes, after 30 minutes incubation, read-out: % Activity NADPH T30",91%
same,"activity at 0 min, 50 µM","CYP2D6; pooled human liver microsomes, CYP2D6, 50 μM, human liver microsomes, time zero, read-out: % Activity NADPH T0",104%
same,IC10,[1],892 nM
same,IC50,[1],2840 nM
same,clearance,[2],21 mL/min/kg
same,Vd,[2]; read-out: Vss,2.95 L/kg
same,half-life,[2]; read-out: t½ (converted),1.18 h
same,(% Activity NADPH T0)/(% Activity NADPH T30),"CYP2C9; CYP2C9, 25 μM",0.9
same,(% Activity NADPH T0)/(% Activity NADPH T30),"CYP2C9; CYP2C9, 50 μM",1.2
same,"activity at 30 min, 25 µM","CYP2C9; pooled human liver microsomes, CYP2C9, 25 μM, human liver microsomes, after 30 minutes incubation, read-out: % Activity NADPH T30",47%
same,"activity at 0 min, 25 µM","CYP2C9; pooled human liver microsomes, CYP2C9, 25 μM, human liver microsomes, time zero, read-out: % Activity NADPH T0",44%
same,"activity at 30 min, 50 µM","CYP2C9; pooled human liver microsomes, CYP2C9, 50 μM, human liver microsomes, after 30 minutes incubation, read-out: % Activity NADPH T30",27%
same,"activity at 0 min, 50 µM","CYP2C9; pooled human liver microsomes, CYP2C9, 50 μM, human liver microsomes, time zero, read-out: % Activity NADPH T0",32%
